Tests used:
mutant α-GAL [1] = target: T1, mutant α-GAL (Homo sapiens, UniProt P06280, DEL358-358); assay: T cell-based α-GAL enhancement assay, T cells from Fabry patients cultured with DGJ; design: key to Enhancement Group / Enhancement ratio: E: enhanceable;; I: enhanceable (intermediate);; NE: not enhanceable;; conditions: Fabry patient T cells
T1 construct: endogenous in cells; host or cells: T cell cultures established from blood of Fabry patients
T1 sequence (P06280 with tags, fused parts or gaps DEL358-358): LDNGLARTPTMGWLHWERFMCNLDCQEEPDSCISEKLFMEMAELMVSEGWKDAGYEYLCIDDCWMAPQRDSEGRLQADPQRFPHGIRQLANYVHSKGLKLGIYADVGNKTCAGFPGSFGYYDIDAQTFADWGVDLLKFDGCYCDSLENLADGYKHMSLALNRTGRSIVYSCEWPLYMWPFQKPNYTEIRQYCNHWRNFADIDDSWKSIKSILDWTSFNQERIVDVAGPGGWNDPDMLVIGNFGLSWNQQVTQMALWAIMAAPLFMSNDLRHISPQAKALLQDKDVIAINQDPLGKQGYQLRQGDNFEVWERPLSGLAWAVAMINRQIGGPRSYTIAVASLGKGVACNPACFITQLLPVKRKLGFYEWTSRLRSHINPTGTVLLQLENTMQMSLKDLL
Method: (§1) 2. WBC Separation: • Patient blood was drawn into an 8 mL CPT tube, which has been stored at 18-25° C. • immediately after collecting blood, it was mixed by inverting the tube 8-10 times. • The tube was centrifuged at room temperature (18-25° C.) for 30 minutes at 1800× g using a tabletop centrifuge equipped with swinging buckets. Universal precautions for handling blood specimens were taken, including the use of a closed canister type bucket for centrifugation. • Following centrifugation, several layers of the blood composition become distinguishable which represented separation of the red blood cells from the plasma and white cells.
(§2) 3. Washing of WBC's • Half of the plasma layer was aspirated by vacuum and discarded without disturbing the white cell layer. All of the remaining fluid, including the cell layer, was transferred with a Pasteur pipette to a 15 mL conical screw-cap Falcon centrifuge tube. • PBS was added to bring the volume up to 14 mL and the tube was mixed by inversion. • The tube was centrifuged at room temperature for 20-30 minutes at 1300 rpm (approximately 320× g). • Immediately after centrifugation, as much supernatant as possible was aspirated by vacuum and discarded without disturbing the cell pellet.
(§3) 5. Optional: Freezing WBC Pellet • The cell pellet was mixed in the remaining liquid by tapping a finger against the bottom of the tube. • 0.5 to 1 mL of PBS was added to the re-suspended cells and one half of the pellet was transferred (using a sterile tip on a micropipette) to a labeled 1.8 mL cryovial. • The cryovial was centrifuged at room temperature for 5 minutes at 5000 rpm (approximately 2250 g) in a microcentrifuge. • All of the supernatant liquid was discarded using a Pasteur pipette without disturbing the cell pellet. • 0.5 to 1 ml of RPMI 1640 containing 10% FBS and 5% DMSO was then added to the tube and mixed a pipette and frozen overnight at −80 C prior to transferring to a liquid nitrogen cell storage freezer. B. Establishment of T-Cell Cultures from Blood Specimens • 1. The washed cells were re-suspended in 3.0 ml of RPMI 1640 medium with 10% Cosmic Calf Serum (CCS, Hyclone Laboratories, Logan, Utah), about 25 ng/ml IL-2 (PreProTECH, Rocky Hill, N.J.) and the manufacturer's recommended concentration of PHA (Life Technology, Gaithersburg, Md.). The cells were then transferred to an upright an upright […] culture flask and incubated for 3-4 days at 37° C., 5% CO2. • 2. The cell culture was diluted to 5 ml with growth medium (RPMI-1640, 10% FBS, 25 ng/ml IL-2). The cell concentration was then adjusted to about 5×10^5 cells/ml in the flask. • 3. The growth of the cells was monitored daily. Cells were maintained between 5×10^5 and 1.5×10^6 cells in an upright flask. […] Senescence of the culture will be apparent by a dramatic reduction in growth rate. Culture time may possibly be extended by re-stimulation with PHA. • 4. Optional-Freezing T-lymphocytes: T-lymphocytes may be frozen at 3×10^6 cells/vial using RPMI1640 medium containing 20% FCS and 7.5% DMSO. On day 5, 6, or 7 cryopreserve as many vials as possible at 3×10^6 cells/vial. This is sufficient to thaw 5 mLs of culture at 5×10^5 viable cells/ml. When establishing T-cell cultures, the following should be noted. • Fresh blood specimens should be collected in heparinized tubes (or tubes containing an appropriate anti-coagulant) and used the same day. ACD tubes should be used if specimens cannot be processed within 24 hours. (Clin Chem 1988 January; 34(1):110-3; Clin Diagn Lab Immunol. 1998 November; 5(6):804-7.). • Eight-10 mLs of blood is usually sufficient to establish 20 million cells by day 5. • T lymphocytes are the specific targets of the HIV virus. Use extreme care if the HIV status of the patient is unknown. • Each new lot of IL-2 should be tested to determine the optimal concentration.

mutant α-GAL [2] = target: T2, mutant α-GAL (Homo sapiens, UniProt P06280, R49C); assay: as above; design: key to Enhancement Group / Enhancement ratio: E: enhanceable;; I: enhanceable (intermediate);; NE: not enhanceable;; conditions: Fabry patient T cells, mutation R49C
T2 construct: endogenous in cells; host or cells: T cell cultures established from blood of Fabry patients
T2 sequence (P06280 32-429 R49C): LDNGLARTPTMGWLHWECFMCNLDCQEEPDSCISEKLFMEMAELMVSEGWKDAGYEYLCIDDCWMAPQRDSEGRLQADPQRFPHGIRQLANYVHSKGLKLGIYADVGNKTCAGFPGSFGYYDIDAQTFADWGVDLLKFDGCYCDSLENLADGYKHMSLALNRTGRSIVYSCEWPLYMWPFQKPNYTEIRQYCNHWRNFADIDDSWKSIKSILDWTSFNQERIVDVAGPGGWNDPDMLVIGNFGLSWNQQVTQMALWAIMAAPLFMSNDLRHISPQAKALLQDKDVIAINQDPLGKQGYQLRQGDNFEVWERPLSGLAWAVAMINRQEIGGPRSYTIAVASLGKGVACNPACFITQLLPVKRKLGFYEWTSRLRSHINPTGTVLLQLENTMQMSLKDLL
Method: as §1, §2, §3

Enhancement Group (mutant α-GAL [1]; mutation dE358): NE
Activity (% Normal) (+DGJ) (mutant α-GAL [1]; mutation dE358, 20 μM DGJ): 4 % Normal
Enhancement ratio (mutant α-GAL [1]; mutation dE358, +DGJ vs −DGJ): NE
Enhancement Group (mutant α-GAL [2]): I
Activity (% Normal) (+DGJ) (mutant α-GAL [2]; 20 μM DGJ): 11 % Normal
Enhancement ratio (mutant α-GAL [2]; +DGJ vs −DGJ): 4.3
Compound: OC[C@H]1NC[C@H](O)[C@@H](O)[C@H]1O [DGJ, 1-deoxygalactonojirimycin]
